Measurements published in PMC3742671, “Structure, Antimicrobial Activities and Mode of Interaction with Membranes of Bovel Phylloseptins from the Painted-Belly Leaf Frog, Phyllomedusa sauvagii” (PLoS ONE, 2013).
Ends that are not written are not given here.

Tests used:
[1] = system: E. coli ML-35p; assay: Time-kill assay; format: cell-based; settings: MIC (25 µM) and two-fold above the MIC, in PBS; two experiments in triplicates
Method: The time-kill kinetics of phylloseptins-S against the Gram-negative bacteria E. coli ML-35p and the Gram-positive strain S. aureus ST1065 were evaluated as previously described with a dose of peptide corresponding to the MIC and two-fold above the MIC. Two experiments were realized in triplicates.
Figure 4 Time-kill curves of PLS-S1 (S1), -S2 (S2), and -S4 (S4). […] Controls correspond to bacteria incubated in PBS without peptide. The data are the means ± S.E.M. of two experiments carried out in triplicates.

[2] = system: E. coli ML-35p; assay: Extracellular release of β-galactosidase; format: cell-based; settings: 60 min incubation; PLS-S2 30 and 100 µM, PLS-S4 25 and 100 µM, dermaseptin B2 10 µM; ONPG added to supernatant
Method: PLS-induced permeabilization of the cytoplasmic membranes of S. aureus ST1065 and E. coli ML-35p was analyzed by incubating the bacteria, which express β-galactosidase constitutively, with different concentrations of the peptides (S. aureus ST1065: PLS-S1, -S2, and -S4; E. coli ML-35p: PLS-S2 and -S4) and measuring the time-dependent hydrolysis of the small chromogenic substrate o-nitrophenyl-β-D-galactopyranoside (ONPG) into o-nitrophenol (ONP) by cytoplasmic β-galactosidase (Fig. 5). The three peptides permeabilized the bacterial cytoplasmic membrane with increasing severity according to the time and the peptide concentration. […] To investigate the mechanism of permeabilization, E. coli ML-35p were incubated with PLS-S2 (30 and 100 µM) and PLS-S4 (25 and 100 µM) for 60 min and β-galactosidase activity was measured after removing bacteria by centrifugation and adding ONPG to the supernatant.
Figure 5 Kinetics of the cytoplasmic membrane leakage of E. coli ML-35p and S. aureus ST1065 after incubation with different concentrations of active phylloseptins-S. The membrane leakage was determined by measuring the production of o-nitrophenol at 405 nm following hydrolysis of ONPG by the cytoplasmic bacterial β-galactosidase. […] Results are expressed as the mean ± S.E.M of one representative experiment performed in triplicates.

[3] = system: Escherichia coli; settings: cited from earlier work
Source text: The 16–19 amino acid residue phylloseptins (PLSs) are a new emerging family of cationic antimicrobial peptides that belong to the dermaseptin superfamily, and whose members have been isolated from various genera of the Phyllomedusinae subfamily (Agalychnis, Phasmahyla, and Phyllomedusa), [10]–[16]. Like the archetypal dermaseptins (sensu stricto), these peptides seem to occur in multiple paralogous forms in each species with small differences in amino acid composition. Although only a few of these peptides were properly tested against various microorganisms, significant differences i ...

Substance | killing kinetics (in words) [1] | extracellular release of β-galactosidase (in words) [2] | MIC [3] [µM]
FLSMIPHIVSGVAALAKHL-NH2 [PLS-S4] | Almost similar rapid killing kinetics | dose-dependent release of β-galactosidase | –
FLSLIPHIVSGVASIAKHF-NH2 [PLS-S1] | – | – | 80
FLSLIPHIVSGVASLAKHF-NH2 [PLS-S2] | Almost similar rapid killing kinetics | dose-dependent release of β-galactosidase | –
